Test results from patent US9745261B2, “Inhibitors of the MITF molecular pathway” (THE GENERAL HOSPITAL CORPORATION, priority 2013, dated 2017).
pEC50, pIC50: −log10 of the molar value.

Tests used:
Calcium Channel N-Type = molecular target: T1, Calcium Channel N-Type (Rattus norvegicus, UniProt Q02294); test: Radioligand binding, Calcium Channel N-Type
T1 construct: Eurofins Panlabs, Inc. (contract assay)

Muscarinic M3 = molecular target: T2, Muscarinic M3 (Homo sapiens, UniProt P20309); test: Radioligand binding, Muscarinic M3
T2 construct: Eurofins Panlabs, Inc

Adrenergic α1D = molecular target: T3, Adrenergic α1D (Homo sapiens, UniProt P25100); test: Radioligand binding, Adrenergic α1D
T3 construct: Eurofins Panlabs, Inc. (contract assay)

Opiate μ (OP3, MOP) = molecular target: T4, Opiate μ (OP3, MOP) (Homo sapiens, UniProt P35372); test: Radioligand binding, Opiate μ (OP3, MOP)
T4 construct: Eurofins Panlabs, Inc

Adrenergic α1A = molecular target: T5, Adrenergic α1A (Rattus norvegicus, UniProt P43140); test: Radioligand binding, Adrenergic α1A
T5 construct: Eurofins Panlabs, Inc. (contract assay) 203100 (assay number)

Dopamine D4.2 = molecular target: T6, Dopamine D4.2 (Homo sapiens, UniProt P21917, DEL265-296); test: Radioligand binding, Dopamine D4.2
T6 construct: Eurofins Panlabs, Inc. (contract assay)

Adenosine A1 = molecular target: T7, Adenosine A1 (Homo sapiens, UniProt P30542); test: Radioligand binding, Adenosine A1
T7 construct: Eurofins Panlabs, Inc. (contract assay) 200510 (assay number)

Endothelin ETA = molecular target: T8, Endothelin ETA (Homo sapiens, UniProt P25101); test: Radioligand binding, Endothelin ETA
T8 construct: Eurofins Panlabs, Inc. (contract assay)

GABAB1A = molecular target: T9, GABAB1A (Homo sapiens, UniProt Q9UBS5); test: Radioligand binding, GABAB1A
T9 construct: Eurofins Panlabs, Inc

Interleukin IL-1 = molecular target: T10, Interleukin IL-1 (Mus musculus, UniProt P13504); test: Radioligand binding, Interleukin IL-1
T10 construct: Eurofins Panlabs, Inc

[1] = molecular target: T11, Nicotinic Acetylcholine α1, Bungarotoxin (Homo sapiens, UniProt P02708+P07510+Q07001); test: biochemical; type: binding; conditions: read-out: % Inh.
T11 construct: Eurofins Panlabs, Inc

Melatonin MT1 = molecular target: T12, Melatonin MT1 (Homo sapiens, UniProt P48039); test: Radioligand binding, Melatonin MT1
T12 construct: Eurofins Panlabs, Inc

Transporter, GABA = molecular target: T13, Transporter, GABA (Rattus norvegicus, UniProt P23978); test: Radioligand binding, Transporter, GABA
T13 construct: Eurofins Panlabs

Glucocorticoid = molecular target: T14, Glucocorticoid (Homo sapiens, UniProt P04150); test: Radioligand binding, Glucocorticoid
T14 construct: Eurofins Panlabs, Inc

Adenosine A3 = molecular target: T15, Adenosine A3 (Homo sapiens, UniProt P0DMS8); test: Radioligand binding, Adenosine A3
T15 construct: Eurofins Panlabs, Inc. (contract assay) 200720 (assay number)

MALME-3M cells = test: MALME-3M cell cytotoxicity assay (CellTiter-Glo); type: cell-based, human; conditions: Homo sapiens, Malme-3M, read-out: Target Potency IC50 (μM) MALME-3M; 24 hours, CellTiter-Glo
Description: MALME-3M cells were treated with compounds for 24 hours, and then cell viability was measured using the CellTiter-Glo Assay (Promega), a luciferase-based reagent that measures cellular ATP levels. The compounds were tested at different concentrations to determine IC50 values. Compounds that were active in the primary assay and toxic below 30 μM at 24 hours were considered for probe development. Data were normalized against DMSO in Genedata Screener's Assay Analyzer.
MALME-3M cells were maintained in IMDM (20% FBS, 1% Pen-Strep-Glutamine). Cells were fluid changed every 3 days and/or split upon reaching 100% confluency. For secondary assays, cells were thawed at 6 million cells per Falcon T175 flask. After 3 days, cells were fluid changed, after 3 more days cells were passed to a Corning Triple flask (15-18 million cells) and plated after 3 days in the triple flask.
Day 1 • 1. Plate MALME-3M cells at 3,000 per well in 30 uL media (phenol red free IMDM/10% Fetal Bovine Serum/Penicillin/Streptomycin/L-Glutamine) • 2. Use Corning white 384-well, square, opaque-bottomed plates (Corning Catalog No. 8867BC)
Day 2 • 3. Pin 100 nL compound/DMSO solution (Cybi Well) into assay plates, including the positive control. • 4. Incubate 24 hours at 37° C. in Liconic incubator.
Day 3 • 5. […] Read on the Perkin-Elmer EnVision plate reader with luminescence (LUM) settings for 0.1 sec per well. […]

DCT = test: qPCR assay for DCT expression in SK-MEL-5 cells; type: cell-based; conditions: Homo sapiens; SK-MEL-5 melanoma cells, up to 35 μM
[2] = tested on: primary human melanocytes; test: Cell proliferation/viability assay of primary human melanocytes; type: cell-based; conditions: Melanocyte, 24 hours, CellTiter-Glo
Description: Primary human neonatal melanocytes were isolated from discarded foreskins by gentle dispase treatment and grown in Ham's F10 media supplemented with 7% FBS, penicillin/streptomycin/glutamine, 0.1 mM methyl-3-(2-methylpropyl)-7H-1-purine-2,6-dione (IBMX), 50 ng/mL 12-tetradecanoylphorbol 13-acetate (TPA), 1 μM Na3VO4 and 1 μM N(6),2′-O-dibutyryladenosine 3′:5′ cyclic monophosphate (dbcAMP). Cells were plated at 4,000 cells per well of a 384 well plate. On the following day, 10 nL of compound was added per well and incubated for 24 hours. The compounds were tested at different concentrations to determine IC50 values. At the end of compound treatment, cell viability was measured with CellTiter-Glo (Promega) and luminescence measured with the PerkinElmer EnVision plate reader. Data were normalized against DMSO in Genedata Screener's Assay Analyzer.
Primary human neonatal melanocytes were isolated from discarded foreskins by gentle dispase treatment and grown in TIVA media (Ham's F10 media supplemented with 7% FBS, penicillin/streptomycin/glutamine, 0.1 mM IBMX, 50 ng/mL TPA, […]). […]
Day 3 • 5. […] Read on the Perkin-Elmer EnVision plate reader with luminescence (LUM) settings for 0.1 sec per well. qPCR Assay for Target Gene Expression (MITF: 2084-05, TRPM1: 2084-09, CDK2: 2084-11, DCT: 2084-12, MLANA: 2084-13)

T14 sequence (P04150 whole entry): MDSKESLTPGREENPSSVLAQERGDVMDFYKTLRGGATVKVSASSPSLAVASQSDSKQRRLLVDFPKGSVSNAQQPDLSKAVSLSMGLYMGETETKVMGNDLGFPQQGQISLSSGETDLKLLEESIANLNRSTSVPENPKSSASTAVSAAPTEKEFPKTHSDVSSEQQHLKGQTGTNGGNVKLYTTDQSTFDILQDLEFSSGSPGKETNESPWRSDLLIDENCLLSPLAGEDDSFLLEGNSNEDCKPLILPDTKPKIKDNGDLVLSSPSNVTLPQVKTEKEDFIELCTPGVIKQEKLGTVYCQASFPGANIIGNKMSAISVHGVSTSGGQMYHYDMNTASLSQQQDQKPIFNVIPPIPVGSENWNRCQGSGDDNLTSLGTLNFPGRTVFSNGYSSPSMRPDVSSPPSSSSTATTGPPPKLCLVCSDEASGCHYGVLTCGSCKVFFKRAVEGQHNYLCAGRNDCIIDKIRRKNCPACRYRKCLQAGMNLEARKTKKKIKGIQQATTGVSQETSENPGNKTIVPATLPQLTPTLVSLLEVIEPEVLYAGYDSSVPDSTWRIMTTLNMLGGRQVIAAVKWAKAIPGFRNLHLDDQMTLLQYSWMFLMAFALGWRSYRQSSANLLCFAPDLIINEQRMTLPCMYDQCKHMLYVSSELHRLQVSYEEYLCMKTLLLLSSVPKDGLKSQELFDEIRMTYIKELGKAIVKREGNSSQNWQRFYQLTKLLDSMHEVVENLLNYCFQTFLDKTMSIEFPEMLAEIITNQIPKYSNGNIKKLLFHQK
T8 sequence (P25101 21-427): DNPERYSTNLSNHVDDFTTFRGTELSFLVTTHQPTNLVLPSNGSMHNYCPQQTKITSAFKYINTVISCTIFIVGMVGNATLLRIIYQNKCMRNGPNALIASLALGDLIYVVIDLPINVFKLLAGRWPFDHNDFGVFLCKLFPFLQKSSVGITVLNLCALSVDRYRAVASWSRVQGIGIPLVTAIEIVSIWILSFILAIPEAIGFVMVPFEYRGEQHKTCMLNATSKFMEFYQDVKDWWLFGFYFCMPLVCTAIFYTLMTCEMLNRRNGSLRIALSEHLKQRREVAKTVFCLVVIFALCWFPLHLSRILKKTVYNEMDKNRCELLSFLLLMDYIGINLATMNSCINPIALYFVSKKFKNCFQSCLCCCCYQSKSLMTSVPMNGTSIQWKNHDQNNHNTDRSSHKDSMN
T1 sequence (Q02294 whole entry): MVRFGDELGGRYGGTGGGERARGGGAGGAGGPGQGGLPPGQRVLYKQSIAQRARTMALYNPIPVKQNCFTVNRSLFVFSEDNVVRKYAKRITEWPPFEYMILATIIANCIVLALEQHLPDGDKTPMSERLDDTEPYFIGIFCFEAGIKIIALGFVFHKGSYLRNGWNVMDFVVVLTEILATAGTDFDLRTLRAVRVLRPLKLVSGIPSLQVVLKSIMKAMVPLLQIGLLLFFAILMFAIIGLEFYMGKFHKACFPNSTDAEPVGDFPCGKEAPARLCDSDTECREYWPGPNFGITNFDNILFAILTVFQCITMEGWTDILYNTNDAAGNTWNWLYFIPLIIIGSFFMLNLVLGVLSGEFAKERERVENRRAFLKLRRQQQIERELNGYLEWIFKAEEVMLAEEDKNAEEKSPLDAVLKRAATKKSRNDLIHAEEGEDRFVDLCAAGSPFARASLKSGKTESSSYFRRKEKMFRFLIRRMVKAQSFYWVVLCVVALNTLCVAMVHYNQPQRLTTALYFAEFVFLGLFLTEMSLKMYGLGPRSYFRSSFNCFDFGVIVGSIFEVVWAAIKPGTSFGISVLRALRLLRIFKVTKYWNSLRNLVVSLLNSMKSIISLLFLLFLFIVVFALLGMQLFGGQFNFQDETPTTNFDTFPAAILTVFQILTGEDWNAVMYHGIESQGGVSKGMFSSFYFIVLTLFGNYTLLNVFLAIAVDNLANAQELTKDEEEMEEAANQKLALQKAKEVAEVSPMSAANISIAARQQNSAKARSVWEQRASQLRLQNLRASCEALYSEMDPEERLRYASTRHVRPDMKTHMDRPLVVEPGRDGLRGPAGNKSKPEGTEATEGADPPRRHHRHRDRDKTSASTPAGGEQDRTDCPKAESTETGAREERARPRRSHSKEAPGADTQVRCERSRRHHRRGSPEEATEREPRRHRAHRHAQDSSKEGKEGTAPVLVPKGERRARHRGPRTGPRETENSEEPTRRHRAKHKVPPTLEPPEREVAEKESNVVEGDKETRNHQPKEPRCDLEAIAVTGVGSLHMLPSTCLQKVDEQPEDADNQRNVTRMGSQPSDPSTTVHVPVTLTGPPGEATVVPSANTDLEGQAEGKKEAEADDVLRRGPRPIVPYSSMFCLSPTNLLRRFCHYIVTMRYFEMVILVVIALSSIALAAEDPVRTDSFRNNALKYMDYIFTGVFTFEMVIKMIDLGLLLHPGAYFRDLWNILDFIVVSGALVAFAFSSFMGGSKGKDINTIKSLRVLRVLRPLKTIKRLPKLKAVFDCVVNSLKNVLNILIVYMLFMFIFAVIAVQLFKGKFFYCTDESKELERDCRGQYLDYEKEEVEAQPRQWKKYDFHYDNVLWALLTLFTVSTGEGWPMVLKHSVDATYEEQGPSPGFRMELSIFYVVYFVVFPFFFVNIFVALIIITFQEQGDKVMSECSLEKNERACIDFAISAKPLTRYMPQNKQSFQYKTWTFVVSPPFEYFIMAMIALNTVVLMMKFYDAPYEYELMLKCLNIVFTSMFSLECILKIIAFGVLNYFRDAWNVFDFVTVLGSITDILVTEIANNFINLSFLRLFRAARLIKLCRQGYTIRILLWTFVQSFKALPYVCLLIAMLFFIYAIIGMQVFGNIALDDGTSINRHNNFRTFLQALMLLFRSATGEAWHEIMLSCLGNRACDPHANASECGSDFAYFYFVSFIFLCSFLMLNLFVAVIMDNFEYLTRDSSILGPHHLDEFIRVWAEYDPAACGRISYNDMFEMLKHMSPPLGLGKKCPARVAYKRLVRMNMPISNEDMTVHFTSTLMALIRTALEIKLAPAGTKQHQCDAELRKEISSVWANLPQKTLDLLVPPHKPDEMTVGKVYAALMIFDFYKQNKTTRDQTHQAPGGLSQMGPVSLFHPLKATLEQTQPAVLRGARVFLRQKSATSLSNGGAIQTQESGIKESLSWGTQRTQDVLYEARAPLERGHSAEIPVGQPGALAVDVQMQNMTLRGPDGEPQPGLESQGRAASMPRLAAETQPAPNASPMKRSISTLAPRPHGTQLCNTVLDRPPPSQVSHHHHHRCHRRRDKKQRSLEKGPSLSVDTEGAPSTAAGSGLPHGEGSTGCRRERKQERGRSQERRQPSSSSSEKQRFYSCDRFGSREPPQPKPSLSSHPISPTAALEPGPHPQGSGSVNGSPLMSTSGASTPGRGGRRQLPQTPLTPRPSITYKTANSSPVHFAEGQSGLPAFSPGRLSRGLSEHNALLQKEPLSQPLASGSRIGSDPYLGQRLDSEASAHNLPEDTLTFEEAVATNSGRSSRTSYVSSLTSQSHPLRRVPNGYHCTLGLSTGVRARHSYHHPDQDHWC
T1 sequence (P54287 whole entry partner): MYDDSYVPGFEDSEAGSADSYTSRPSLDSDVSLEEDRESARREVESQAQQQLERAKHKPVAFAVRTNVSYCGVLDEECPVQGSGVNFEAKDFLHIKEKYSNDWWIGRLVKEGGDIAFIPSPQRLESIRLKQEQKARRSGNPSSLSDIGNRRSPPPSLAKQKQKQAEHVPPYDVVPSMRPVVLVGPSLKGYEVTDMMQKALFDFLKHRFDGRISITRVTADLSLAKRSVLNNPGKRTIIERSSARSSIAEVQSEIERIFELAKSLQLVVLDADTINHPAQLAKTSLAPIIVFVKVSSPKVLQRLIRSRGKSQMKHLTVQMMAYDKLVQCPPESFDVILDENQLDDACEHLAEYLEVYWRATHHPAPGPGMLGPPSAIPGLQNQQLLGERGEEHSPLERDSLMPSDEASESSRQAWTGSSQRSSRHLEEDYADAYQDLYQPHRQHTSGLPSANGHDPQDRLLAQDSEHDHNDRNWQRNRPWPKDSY
T1 sequence (P54290 25-944 partner limits assumed): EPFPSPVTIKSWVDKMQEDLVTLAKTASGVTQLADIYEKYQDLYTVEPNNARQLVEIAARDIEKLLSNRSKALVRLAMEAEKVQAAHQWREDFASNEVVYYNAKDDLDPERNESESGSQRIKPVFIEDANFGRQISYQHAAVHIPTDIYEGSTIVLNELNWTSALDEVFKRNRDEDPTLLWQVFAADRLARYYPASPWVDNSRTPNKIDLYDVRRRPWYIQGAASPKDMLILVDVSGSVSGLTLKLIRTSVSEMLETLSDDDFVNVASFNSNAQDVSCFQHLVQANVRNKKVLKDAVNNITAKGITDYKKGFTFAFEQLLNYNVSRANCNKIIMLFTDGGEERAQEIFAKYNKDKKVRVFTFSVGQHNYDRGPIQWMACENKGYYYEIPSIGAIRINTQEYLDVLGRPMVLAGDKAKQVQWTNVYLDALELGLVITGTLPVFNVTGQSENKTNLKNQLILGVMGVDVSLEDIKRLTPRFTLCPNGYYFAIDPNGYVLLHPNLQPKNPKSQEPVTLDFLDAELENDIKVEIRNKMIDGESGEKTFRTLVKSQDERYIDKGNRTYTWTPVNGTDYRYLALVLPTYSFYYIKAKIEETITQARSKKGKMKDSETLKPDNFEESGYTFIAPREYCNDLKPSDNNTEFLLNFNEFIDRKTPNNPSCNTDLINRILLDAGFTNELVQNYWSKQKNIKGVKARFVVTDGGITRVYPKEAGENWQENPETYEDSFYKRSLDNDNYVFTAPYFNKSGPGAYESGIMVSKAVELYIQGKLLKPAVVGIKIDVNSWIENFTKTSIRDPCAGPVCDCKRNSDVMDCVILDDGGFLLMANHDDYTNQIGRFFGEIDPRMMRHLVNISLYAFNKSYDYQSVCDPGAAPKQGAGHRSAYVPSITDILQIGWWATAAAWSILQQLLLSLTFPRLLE
T1 sequence (P54290 945-1091 partner limits assumed): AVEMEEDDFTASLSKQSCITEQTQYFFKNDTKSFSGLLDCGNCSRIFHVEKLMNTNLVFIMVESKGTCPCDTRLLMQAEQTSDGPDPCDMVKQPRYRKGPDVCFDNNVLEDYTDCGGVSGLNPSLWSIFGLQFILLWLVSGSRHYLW

| Structure (SMILES) | inhibition at 10 µM (Calcium Channel N-Type) | inhibition at 10 µM (Muscarinic M3) | inhibition at 10 µM (Adrenergic α1D) | inhibition at 10 µM (Opiate μ (OP3, MOP)) | inhibition at 10 µM (Adrenergic α1A) | inhibition at 10 µM (Dopamine D4.2) | inhibition at 10 µM (Adenosine A1) | inhibition at 10 µM (Endothelin ETA) | inhibition at 10 µM (GABAB1A) | inhibition at 10 µM (Interleukin IL-1) | inhibition at 10 µM [1] | inhibition at 10 µM (Melatonin MT1) | inhibition at 10 µM (Transporter, GABA) | inhibition at 10 µM (Glucocorticoid) | inhibition at 10 µM (Adenosine A3) | IC50 (MALME-3M cells) | pEC50 (DCT) | pIC50 [2] |
| --- | --- | --- | --- | --- | --- | --- | --- | --- | --- | --- | --- | --- | --- | --- | --- | --- | --- | --- |
| NS(=O)(=O)c1ccc(NC2=CC(=O)c3ccccc3C2=O)cc1 [Example 1, 4-((1,4-Dioxo-1,4-dihydronaphthalen-2-yl)amino)benzenesulfonamide] | -3% | 22% | 21% | 1% | 28% | 4% | 46% | 17% | 11% | 6% | -2% | 9% | 9% | 5% | 15% |  |  |  |
| NS(=O)(=O)c1ccc(NC2=CC(=O)c3ccccc3C2=O)cc1 [4-((1,4-dioxo-1,4-dihydronaphthalen-2-yl)amino)benzenesulfonamide] |  |  |  |  |  |  |  |  |  |  |  |  |  |  |  | 0.88 µM | 7.00 | 5.15 |
